In paper PMC9562341, “AI protein structure prediction-based modeling and mutagenesis of a protostome receptor and peptide ligands reveal key residues for their interaction” (The Journal of Biological Chemistry, 2022):
Like-named read-outs stand apart in the source and are kept apart here. Values belong to the substance of their own block, whether it stands above or below them. Where no end group is shown, it is not given here.

Legend:
[1] = molecular target: T1, ALKR (Aplysia leucokinin-like peptide receptor) (Aplysia californica, UniProt A0A977Q7Q2); test: IP1 accumulation assay, CHO-K1 cells transfected with ALKR; assay type: cell-based; conditions: for EC50: CHO-K1 transiently transfected with ALKR, no promiscuous Gαq, ALK1 n = 13, ALK2 n = 4, others n = 3; for Active (√ active / × not active): ALKR, tick or cross in column Active (EC50)
T1 sequence (A0A977Q7Q2 1-429): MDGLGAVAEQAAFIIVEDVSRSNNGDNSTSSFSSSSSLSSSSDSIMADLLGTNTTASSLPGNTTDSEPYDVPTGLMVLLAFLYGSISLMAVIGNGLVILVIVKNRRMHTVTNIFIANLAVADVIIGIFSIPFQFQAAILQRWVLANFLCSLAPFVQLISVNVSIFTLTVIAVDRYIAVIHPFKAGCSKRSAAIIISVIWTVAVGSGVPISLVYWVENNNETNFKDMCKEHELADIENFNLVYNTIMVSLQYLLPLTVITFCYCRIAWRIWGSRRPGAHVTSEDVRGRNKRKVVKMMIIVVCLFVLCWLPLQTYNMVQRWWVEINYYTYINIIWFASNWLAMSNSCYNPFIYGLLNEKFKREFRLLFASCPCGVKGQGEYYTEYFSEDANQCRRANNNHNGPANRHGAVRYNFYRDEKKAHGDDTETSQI
From the text: To examine whether the native ALKs could activate the putative ALKR, we expressed the ALKR in Chinese hamster ovary K1 (CHO-K1) cells and examined ALK-mediated changes in the concentration of inositol monophosphate (IP1), a degradation product of the second messenger (inositol trisphosphate) in the Gq signaling pathway upon ligand-induced activation ([88]) (Figs. 4 and S5). […] All endogenous ALK peptides could activate ALKR in a dose-dependent manner (Fig. 4, A–C). […] The lowest EC50 values were for ALK8 (EC50 = 10 nM) and ALK9 (EC50 = 10 nM). The EC50 values for ALK1, ALK2, ALK3, ALK4, ALK5, ALK10, ALK13 were slightly higher than that of ALK9, but there was no statistically significant difference between them (Table S5).
(§1) IP1 accumulation assay measures concentration of IP1 ([88]), that is hydrolyzed from the second messenger, inositol trisphosphate, generated by Gαq pathway when GPCR expressed in CHO-K1 cells is activated by an appropriate ligand. We note two reasons that we selected mammalian CHO-K1 cells for assays for ligand-receptor (GPCR) activity: (1) there are no established molluscan cell lines available; (2) CHO-K1 cells have been extensively utilized not only for vertebrate GPCRs (e.g., ([97])) but also for invertebrate/protostome GPCRs, including other molluscs ([9], [11], [73]), annelids ([8]), jellyfish ([98]), Caenorrhabditis elegans ([99]), and arthropods ([76], [78], [79], [80]). Given that LKRs are only present in protostomes ([6], [7], [66], [67]), an additional advantage of using mammalian cells to assay ligand-receptor activity is that the effects of a possible native LKR in protostome cell lines could be excluded.
(§2) In order to express the Aplysia putative receptor transiently in CHO-K1, the cDNA was cloned into the mammalian expression vector pcDNA3.1(+). […] Transfection experiments were performed when the cells were grown to 70 to 90% confluence. For the ALKR, in each dish (60-mm diameter), 4 μg of the putative receptor plasmids [in pcDNA3.1(+)] were mixed with 400 μl of Opti-MEM (Gibco, 11058021), followed by the addition of 15 μl of Turbofect (Thermo Fisher Scientific, R0531). […] Thus, 3 μg of the putative receptor plasmids [in pcDNA3.1(+)] and 3 μg of promiscuous Gαq protein ([89]) [in pcDNA3.1(+)] were cotransfected in the above procedure for the Anopheles LKR ([8], [10]). The CHO-K1 cells with the reagents added above were mixed gently and incubated at room temperature for 15 min. The DNA/Turbofect mixture dropwise was then added to the dish, and the cells were incubated at 37 °C in 5% CO2 overnight. The next day, the cells were trypsinized and reseeded in opaque white 96-well half-area (Corning, 3688) or 384-well tissue culture–treated plates (Corning, 3570) at a density of 20,000 cells/well in F-12K and 10% FBS and incubated at 37 °C in 5% CO2 overnight. On the third day, the activation of the receptors was detected by monitoring IP1 accumulation using IP1 detection kit (Cisbio, 62IPAPEB) with a Tecan Spark plate reader. Except for using 0.5 × reagents for the anti-IP1-cryptate and IP1-d2 reagents, all other procedures were performed in accordance with the IP1 detection kit manufacturer’s instructions.

[2] = molecular target: Aplysia leucokinin-like peptide receptor (Aplysia californica)
[3] = molecular target: ALKR N314A (Aplysia californica)
[4] = molecular target: ALKR L157Q & I329Q (Aplysia californica)
[5] = molecular target: ALKR I329Q (Aplysia californica)
[6] = molecular target: ALKR Q133A (Aplysia californica)
[7] = molecular target: ALKR L157Q (Aplysia californica)
[8] = molecular target: ALKR Y213A (Aplysia californica)
[9] = molecular target: ALKR Q133A & Y213A & Q317A (Aplysia californica)
[10] = molecular target: ALKR Q250A & Q311A (Aplysia californica)
[11] = molecular target: ALKR Q317A (Aplysia californica)
Anopheles LKR = molecular target: T2, Anopheles LKR (Anopheles stephensi, UniProt Q694V6); test: IP1 accumulation assay, CHO-K1 cells cotransfected with Anopheles LKR and promiscuous Gαq; assay type: cell-based; conditions: log scale, mean ± SEM, n = 3
T2 sequence (Q694V6 1-573): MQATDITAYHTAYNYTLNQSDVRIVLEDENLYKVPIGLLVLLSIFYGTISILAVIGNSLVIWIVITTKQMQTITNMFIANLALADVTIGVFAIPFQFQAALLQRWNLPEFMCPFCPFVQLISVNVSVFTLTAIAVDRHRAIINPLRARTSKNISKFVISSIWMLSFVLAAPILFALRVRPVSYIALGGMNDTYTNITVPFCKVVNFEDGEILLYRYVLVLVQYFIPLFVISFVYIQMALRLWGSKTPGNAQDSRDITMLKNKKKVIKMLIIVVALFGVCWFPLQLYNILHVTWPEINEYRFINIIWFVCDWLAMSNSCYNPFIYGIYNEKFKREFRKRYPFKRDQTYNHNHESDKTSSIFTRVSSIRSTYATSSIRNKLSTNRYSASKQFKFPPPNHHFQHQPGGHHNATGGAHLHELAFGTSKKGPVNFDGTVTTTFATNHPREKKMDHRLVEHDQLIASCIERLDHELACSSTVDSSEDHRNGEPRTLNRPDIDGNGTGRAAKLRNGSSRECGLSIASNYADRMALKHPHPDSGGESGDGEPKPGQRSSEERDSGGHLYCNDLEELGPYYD
From the text: Considering the similarity of leucokinin-like peptides in different species (Fig. 1), we sought to evaluate cross-activity between leucokinin peptides and their receptors in different species. We selected A. stephensi because it is a pest, and this would also provide an opportunity to determine if Aplysia LKs could be potentially used as insecticides ([67]). […] Thus, we cotransfected promiscuous Gαq with the Anopheles receptor, whereas there was no cotransfection of promiscuous Gαq for ALKR.
as §1
as §2, with “Except for using 0.5 × reagents for the anti-IP1-cryptate and IP1-d2 reagents, all other procedures were performed in accordance with the IP1 detection kit manufacturer’s instructions.” left out

[12] = log scale, IP1 detection kit (Cisbio), mean ± SEM, inactive: greater than highest concentration tested, read-out: log [EC50] on ALKR (converted)

Substance: PAFHSAS-NH2 [ALK1_A6]
EC50 ([1]; IP1 accumulation, average, rounded to two significant figures, read-out: EC50 on ALKR): > 10000 nM
Activation of ALKR (in words) ([1]; IP1 accumulation in CHO-K1 transfected with ALKR): not active
Active (√ active / × not active) ([1]; IP1 accumulation): ×
EC50 [1, 12]: > 10000 nM

Substance: PAFASWS-NH2 [ALK1_A4]
EC50 [1, 12]: 51.3 nM

Substance: PAFSAWN-NH2 [ALK5]
EC50 [1, 12]: 10.5 nM

Substance: PAFHSWS-OH [ALK1_nG]
Active (√ active / × not active) ([1]; IP1 accumulation): ×

EC50 of IP1 accumulation in CHO-K1 cells transfected with ALKR [2]: 10 nM
Substance: Aplysia leucokinin-like peptide 8

Substance: PAFQAWS-NH2 [ALK13]
EC50 [1, 12]: 15.1 nM

EC50 of IP1 accumulation in CHO-K1 cells transfected with ALKR [2]: 32 nM
Substance: Aplysia leucokinin-like peptide 6

EC50 of IP1 accumulation in CHO-K1 cells transfected with ALKR [2]: 92 nM
Substance: Aplysia leucokinin-like peptide 7

Substance: PAAFHAWS-NH2 [ALK11]
EC50 [1, 12]: 61.7 nM

EC50 of IP1 accumulation in CHO-K1 cells expressing the ALKR mutant, activated by ALK1 [3]: 120 nM
EC50 of IP1 accumulation in CHO-K1 cells expressing the ALKR mutant, activated by ALK1 [4]: 35000 nM
EC50 of IP1 accumulation in CHO-K1 cells expressing the ALKR mutant, activated by ALK1 [5]: 6800 nM
EC50 of IP1 accumulation in CHO-K1 cells expressing the ALKR mutant, activated by ALK1 [6]: 78 nM
EC50 of IP1 accumulation in CHO-K1 cells expressing the ALKR mutant, activated by ALK1 [7]: 77 nM
EC50 of IP1 accumulation in CHO-K1 cells expressing the ALKR mutant, activated by ALK1 [8]: 370 nM
EC50 of IP1 accumulation in CHO-K1 cells expressing the ALKR mutant, activated by ALK1 [9]: 13000 nM
EC50 of IP1 accumulation in CHO-K1 cells expressing the ALKR mutant, activated by ALK1 [10]: 19000 nM
EC50 of IP1 accumulation in CHO-K1 cells expressing the ALKR mutant, activated by ALK1 [11]: 56 nM
Substance: Aplysia leucokinin-like peptide 1

Substance: DTPRYVSKQKFHSWG-NH2 [Anopheles LK1, reference compound]
EC50 (Anopheles LKR): 3.63 nM
EC50 [1, 12]: 427 nM

Substance: PAFHAWS-NH2 [ALK2]
EC50 [1, 12]: 21.4 nM

EC50 of IP1 accumulation in CHO-K1 cells transfected with ALKR [2]: 10 nM
Substance: Aplysia leucokinin-like peptide 9

Substance: SEKQPAFHAWS-NH2 [ALK6]
EC50 [1, 12]: 31.6 nM
